Measured values reported in publication PMC9355956 (Communications Biology, 2022).
Values joined by “and” are separate entries in the source; they are usually repeats but may differ in a detail not shown here. Equal values may be shown once. “Also recorded” adds a separate entry of the source. Where a name gives a salt, the structure may show the parent alone. Read-outs that look alike come from different tables or passages of the source.

Key:
hSMOX in A549 cells = target: T1, hSMOX in A549 cells (Homo sapiens, UniProt Q9NWM0); assay: CETSA in A549 cells with hSMOX AlphaLISA detection; assay type: cell-based; details: A549 intact cells, 54 °C, vs vehicle
T1 construct: human lung carcinoma cells (A549) which endogenously produce high levels of hSMOX; endogenous in cells; host or cells: A549 human lung carcinoma cells
T1 sequence (Q9NWM0 whole entry): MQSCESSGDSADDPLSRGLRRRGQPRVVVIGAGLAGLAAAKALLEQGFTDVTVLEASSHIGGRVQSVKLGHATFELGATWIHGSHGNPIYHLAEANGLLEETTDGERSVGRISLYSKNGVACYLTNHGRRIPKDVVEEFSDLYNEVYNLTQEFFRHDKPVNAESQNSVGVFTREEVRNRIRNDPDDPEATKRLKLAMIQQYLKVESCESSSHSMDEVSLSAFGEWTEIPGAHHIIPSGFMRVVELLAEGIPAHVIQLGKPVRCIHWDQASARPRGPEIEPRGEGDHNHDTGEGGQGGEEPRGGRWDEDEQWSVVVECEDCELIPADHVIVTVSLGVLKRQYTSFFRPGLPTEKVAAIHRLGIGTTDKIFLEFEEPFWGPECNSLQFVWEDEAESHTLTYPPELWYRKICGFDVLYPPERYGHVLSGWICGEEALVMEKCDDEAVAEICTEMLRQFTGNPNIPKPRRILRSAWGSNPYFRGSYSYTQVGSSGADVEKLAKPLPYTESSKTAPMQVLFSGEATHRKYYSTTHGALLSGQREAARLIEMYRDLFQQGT
Excerpt: To determine whether JNJ-1289 would be able to target hSMOX in a cellular environment, we developed a Cellular Thermal Shift Assay (CETSA®)[52] using human lung carcinoma cells (A549) which endogenously produce high levels of hSMOX[53]. CETSA evaluates the binding of low molecular weight compounds to target proteins directly in intact cells by taking advantage of the increased resistance to thermal denaturation that ligand binding can confer on proteins. Detection of the relative amounts of remaining soluble protein using AlphaLISA after incubation of A549 cells at the optimal melting temperature of hSMOX for CETSA (54 °C) was performed in the presence or absence of hSMOX ligands.
A549 (adenocarcinoma human alveolar basal epithelial cells) express relatively high levels of hSMOX. Their use has been widely reported in the literature for the investigation of the polyamine catabolic pathway. In our case, using hSMOX high-expressing cells with CETSA and AlphaLISA systems provided the optimal platform for screening promising small molecules for hSMOX inhibition.
T175 culture flasks with 80–90% confluent cells were used for harvesting after washing two times with PBS followed by the addition of 2 mL TrypLE^TMselect (Gibco) per flask and incubation for 5 min at 37 °C. After dissociation, cells were resuspended in 1 mL culture medium (DMEM (Gibco) with 10% fetal calf serum) and 7 mL PBS. Cells from multiple flasks were pooled, spun down for 5 min at 300 × g, and resuspended to 20 million cells/mL in PBS.
Compounds were dissolved in DMSO to 1 mM stocks. Compound stocks and DMSO controls were added to vials containing 1 mL cell suspension to an end concentration of 10 µM compound and 1% DMSO. Vials were incubated at 37 °C for 1 h while shaking at 125 rpm. Subsequently, vials were cooled on ice and cells were distributed to PCR vials at 20 µL per vial. Transient heating of the cells was performed using a PCR Thermocycler. Vials were heated up to 54 °C for 1 min and then immediately cooled on ice. For temperature range experiments the heating step was repeated increasing the temperature with each next vial with 1 °C. After the cooling step cells were lysed by adding 80 µL 1x AlphaLISA-buffer (Perkin Elmer).
The hSMOX specific AlphaLISA was developed using internally monoclonal rabbit antibody mAb#2 and F(ab’)2 fragment Fab#33 against hSMOX containing a C-terminal His-tag. Both mAb#2 and Fab#33 are specific for hSMOX and selected for their ability to detect hSMOX without interfering with its catalytic activity. Care was taken to confirm that both mAb#2 and Fab#33 bind to distinct (conformational) epitopes. […] After 1 h Alpha signal was read using an Alpha compatible reader. […]

hSMOX [1] = target: T2, hSMOX (Homo sapiens, UniProt Q9NWM0); assay: Thermal shift assay (ThermoFluor, ANS dye) of purified hSMOX; assay type: binding; details: compared to DMSO control
T2 construct: 6xHis (N); TEV cleavage site (N); made in house; host or cells: E. coli BL21(D3), plasmid PET28b(+)
T2 sequence (Q9NWM0 whole entry): as above
Experimental: The fluorescent dye ANS (Molecular Probes) was used to monitor the thermal denaturation of hSMOX. Assay buffer consisting of 10 mM HEPES pH 7.5, 150 mM NaCl, 0.005% P20 was used for all dilutions. The assay was performed in 384-well Hard Shell thin-wall PCR plates (Bio-Rad). 120 nL of ligand was dispensed into the 384-well plate using acoustic dispensing technology followed by the addition of 4 µL of 0.2 mg/ml of hSMOX with 60 µM ANS dye. Replicates of 4% DMSO protein control were set up in each plate. Wells were covered with 1 µL silicone oil. Plates were centrifuged at 1000 rpm for 2 min. The Tm’s were measured using a ThermoFluor instrument. The plates were heated from 30 to 80 °C at a rate of 1 °C per minute. The ΔTm is calculated as the difference between the Tm of each well and that of the average 4% DMSO protein control.

hSMOX [2] = target: T2, hSMOX; assay: Progress curve analysis of hSMOX inhibition (on rate, mode of inhibition); assay type: biochemical
Experimental: Reactions were initiated with 3 µL/well of 2x hSMOX and quenched at several time points up to 1 h with 3 µL/well of 25 µM final chlorhexidine. […] Thereafter, 9 µL/well of HyPerBlu reagent was added.
Time point data up to 1 h of reaction time was captured by dispensing 3 µL/well of 25 µM final chlorhexidine to quench the reactions followed by the addition of 9 µL/well HyPerBlu reagent.
Supplementary Fig. 11. Kinetics of JNJ-1289. a, Reaction progress curve analysis of 2 nM […]
Progress curves were monitored for 1h and fit to Eqn S1 at each JNJ-1289 concentration to determine the observed rate constant, kobs.
[P] = Y0 + υ t + υi−υs (1 − e−kobst) (S1) […]
where υi and υs are the initial and steady state velocities, respectively, t is time and kobs represents the observed rate constant. b, Replot of kobs vs. [JNJ-1289] was hyperbolic, which indicated a two-step binding mechanism […]
where I is the inhibitor concentration, k5 and k6 are the estimated forward and reverse rate constants, respectively, and Kiapp is the apparent value of the initial E·I complex. […]
concentrations (7.8 – 1000 µM). Progress curves were monitored for 1h and fit to Eqn S3 at […]
(1 picture or pasted object on this page, not shown here)

hPAOX = hPAOX (Homo sapiens, UniProt Q6QHF9); assay: hPAOX HyPerBlu enzyme activity assay (N-AcSpm substrate)
Chain of hPAOX (Q6QHF9 whole entry): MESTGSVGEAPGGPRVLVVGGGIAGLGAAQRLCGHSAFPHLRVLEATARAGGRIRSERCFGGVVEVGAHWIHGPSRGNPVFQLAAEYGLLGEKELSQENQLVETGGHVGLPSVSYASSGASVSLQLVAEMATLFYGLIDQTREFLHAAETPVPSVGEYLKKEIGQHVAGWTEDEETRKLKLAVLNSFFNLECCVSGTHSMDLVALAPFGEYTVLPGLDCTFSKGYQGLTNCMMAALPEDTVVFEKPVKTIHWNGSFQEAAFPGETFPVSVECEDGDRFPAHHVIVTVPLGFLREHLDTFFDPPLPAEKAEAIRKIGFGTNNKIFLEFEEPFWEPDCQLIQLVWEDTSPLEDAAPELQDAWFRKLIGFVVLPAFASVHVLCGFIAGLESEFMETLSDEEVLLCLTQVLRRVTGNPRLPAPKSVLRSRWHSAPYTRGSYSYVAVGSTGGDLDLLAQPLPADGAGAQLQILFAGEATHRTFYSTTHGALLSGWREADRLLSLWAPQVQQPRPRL
Experimental: The activity of hSMOX, hPAOX, and LSD1 enzymes was measured using the HyPerBlu chemiluminescent reagent for the direct detection of the hydrogen peroxide product. […] Hydrogen peroxide product formation was monitored 30 min after the addition of HyPerBlu on a PHERAstar microplate reader (BMG LABTECH, Cary, NC). All compounds were spotted into the assay plates using Echo acoustic dispensing technology (BeckmanCoulter, Indianapolis, IN). Unless otherwise stated, all reactions were carried out in 384-well assay format.
2 µL/well of 2x substrate was dispensed into the assay plate followed by 2 µL/well of 2x enzyme to initiate the reactions. […] The data were fit to the 4-parameter IC50 equation in GraphPad Prism.
50 nL/well of the twofold inhibitor titrations in 100% DMSO were dispensed into the assay plate followed by the addition of 2.5 µL of 2x hSMOX or 2x hPAOX. A 2 h or 4 h E·I preincubation was carried out at a final concentration of 2 nM or 3 nM hSMOX or 60 pM hPAOX. […] For the 0 h preincubation control, the addition of the substrate solution was made prior to the enzyme solution. […] The data were fit to the 4-parameter IC50 equation in GraphPad Prism.
Briefly, 2.5 µL/well of the twofold substrate solutions prepared in buffer was added to the assay wells followed by 2.5 µL/well of the 2x enzyme to initiate the reactions.
The initial velocity data were fit to the Michaelis-Menten equation in GraphPad Prism. Y=Vmax*X/(Km+X) where Vmax is the maximal velocity, X is the substrate concentration and Km is the Michaelis-Menten constant. The kcat value was determined by dividing Vmax value by the enzyme concentration.

hSMOX [3] = target: T2, hSMOX; assay: hSMOX HyPerBlu chemiluminescent enzyme activity assay (H2O2 detection, Spm substrate); assay type: biochemical; details: for time-dependent inhibition of hSMOX: ± 2 h preincubation with enzyme
Excerpt: Based on this assay, we carried out a high-throughput screening campaign searching for inhibitors of hSMOX against a diverse compound collection.

LSD1 = LSD1 (Homo sapiens, UniProt O60341); assay: LSD1 HyPerBlu enzyme activity assay (H3K4me2 peptide substrate)
hSMOX [4] = target: T2, hSMOX; assay: nanoDSF thermal denaturation of purified SMOX; assay type: binding; details: 10 μM SMOX, 100 μM compound
Experimental: All nanoDSF experiments were performed on a nanoTEMPER Prometheus NT.48 instrument. 10 μM purified SMOX was incubated with 100 μM compound of interest for 10 min and loaded onto the instrument. Thermal denaturation (25–90 °C) was conducted at 1.0 °C/min and 45% intensity. Tm was calculated using PR.ThermControl software as the inflection point of the first derivative of Trp fluorescence during the temperature gradient measured at 350/330 nm. All experiments were performed in triplicate.

murine SMOX enzyme = details: value reported for the murine SMOX enzyme; cited from earlier work
[5] = 2.5 nM hSMOX, 30 µM Spm, 1 h reaction, HTS assay conditions, read-out: IC50 hSMOX

## CCNCCCNCCCNCCCNCC [Benspm]
hSMOX in A549 cells
  cellular hSMOX engagement (AlphaLISA signal after heating): absence of cellular hSMOX engagement

## Oc1ccc(Nc2nc(-c3cnc4ccccn34)cs2)cc1 [JNJ-1289, 4-((4-imidazo[1,2,α]pyridine-3-ylthiazol-2-yl)amino)phenol]
hSMOX [1]
  ΔTm of hSMOX (thermal shift): 11.3 °C
hSMOX [2]; 312 nM inhibitor, varying Spm, 2 nM hSMOX
  mode of inhibition with respect to Spm: competitive hSMOX inhibitor
hSMOX [2]; from 0.693/koff
  t1/2 dissociation: 7.7 h
hSMOX [2]; read-out: apparent Ki (Ki app) of the initial E·I complex
  Ki: 1400 nM
hSMOX [2]; read-out: apparent second-order on-rate constant (kon)
  kon: 2500 M⁻¹ s⁻¹
hSMOX [2]; read-out: calculated first-order dissociation rate constant (koff)
  koff: 2.5e-05 s⁻¹
hPAOX
  IC50: > 2000 nM
hPAOX; ± 2 h preincubation with enzyme
  time-dependent inhibition of hPAOX: do not observe time-dependent inhibition
hSMOX in A549 cells
  cellular hSMOX engagement (AlphaLISA signal after heating): absence of cellular hSMOX engagement; also recorded: apparent lack of target engagement
hSMOX [3]; [5]
  IC50: 50 nM
hSMOX [3]; 2 h preincubation, 30 µM Spm, read-out: IC50 hSMOX, 2 h (120 min) enzyme-inhibitor preincubation
  IC50: 5.5 nM and 8 nM
hSMOX [3]; 4 h preincubation, 30 µM Spm
  IC50 hSMOX, 4 h (240 min) enzyme-inhibitor preincubation: within twofold of the results observed using a 120 min pre-incubation
hSMOX [3]; IC50 hSMOX, 4 h (240 min) enzyme-inhibitor preincubation, 4 h preincubation, 30 µM Spm
  IC50: 3.2 nM
hSMOX [3]; no preincubation, 30 µM Spm, read-out: IC50 hSMOX, 0 h enzyme-inhibitor preincubation
  IC50: 143 nM and 127 nM
hSMOX [3]
  time-dependent inhibition of hSMOX: selective and time-dependent inhibition; also recorded: time-dependent hSMOX inhibitor
LSD1
  IC50: > 2000 nM
hSMOX [4]
  thermal stability of hSMOX (nanoDSF): increase the thermal stability of the protein

## C=C=CCNCCCCNCC=C=C [MDL72527, reference compound]
hSMOX in A549 cells
  cellular hSMOX engagement (AlphaLISA signal after heating): robust cellular hSMOX engagement
hSMOX [4]
  thermal stability of hSMOX (nanoDSF): increase the thermal stability of the protein

## CC(=O)NCCCNCCCCNCCCN [N-AcSpm, N^1-acetylspermine trihydrochloride]
hPAOX; read-out: Km for hPAOX, substrate, 0.076 nM hPAOX
  Km: 20.1 ± 0.63 µM
hPAOX; substrate, 0.076 nM hPAOX
  kcat hPAOX: 57 s⁻¹

## NCCCNCCCCNCCCN [Spm, spermine]
hSMOX [3]; substrate, 2.5 nM hSMOX
  kcat hSMOX: 4 s⁻¹

## [H]/N=C(\N/C(=N/[H])NCCCCCCNC(=N)NC(=N)Nc1ccc(Cl)cc1)Nc1ccc(Cl)cc1 [chlorhexidine, reference compound]
hSMOX in A549 cells
  cellular hSMOX engagement (AlphaLISA signal after heating): absence of cellular hSMOX engagement
hSMOX [3]
  inhibition of hSMOX (in words): robust inhibition
  time-dependent inhibition of hSMOX: not observed
hSMOX [3]; [5]
  IC50: 1900 nM
hSMOX [3]; listed as Chlorhexidine
  inhibition of hSMOX (in words): inhibited
  time-dependent inhibition of hSMOX: did not display time-dependent inhibition
Murine SMOX enzyme
  Ki: 3800 ± 200 nM
